Laboratory results: article PMC11271967, “An inhibitory mechanism of AasS, an exogenous fatty acid scavenger: Implications for re-sensitization of FAS II antimicrobials” (PLOS Pathogens, 2024)

What was measured:
AasS [1] = target: T1, AasS (Vibrio harveyi, UniProt Q00IB3); experiment: Microscale thermophoresis (MST), wild-type AasS; type: binding; settings: MST
Procedure: (§1) To validate poor binding of AasS(D411A) to C10 fatty acyl adenylate observed in our ITC assays, the relatively-more sensitive approach of microscale thermophoresis (MST) was additionally applied here as Jerabek-Willemsen et al. described with minor alteration. Using the Protein Labeling Kit (Protein Labeling Kit RED-NHS 2nd Generation, Nano Temper Technology), both the wild-type AasS and its D411A mutant were fluorescently labelled in the MST buffer (150 mM NaCl, 25 mM Tris-HCl, 3 mM MgCl2, 0.05% Tween-20, pH 8.0). The ligand C10-AMP used in MST assays was prepared by an equal mixture of C10 and ATP. In general, an NT.115 Monolith instrument (Nano Temper Technology, Germany) was integrated, of which the routine parameters included a RED/LED (20%) excitation power along with 60% laser power for excitation. Then, the protein samples were siphoned into MST Premium Coated capillaries for the determination of binding affinity at room temperature. The final concentrations of different AasS samples were 40 nM for WT, and 180 nM for D411A, respectively. The mixture of C10/ATP was diluted in a gradient (from 0.15 nM to 5.0 μM). Three independent MST experiments were conducted here. The dissociation constants (Kd) were calculated using the software MO. Affinity Analysis v2.3. Of note, this was largely dependent on the KD model with a 1:1 stoichiometry per binding partner.

AasS [2] = target: T1, AasS; experiment: Isothermal titration calorimetry (ITC), wild-type AasS; type: binding; settings: AasS ~40 μM saturated with ATP 120 μM
Procedure: The assays of Isothermal titration calorimetry (ITC) were conducted to address the stoichiometry of AasS binding to its C10-AMS inhibitor and C10-AMP intermediate. Since both malic acid and pimelic acid are not substrates for AasS, the two dicarboxylic acids were assumed as negative controls in our ITC analysis. Using a micro-calorimeter (MicroCal PEAQ-ITC) as recently described for E-C7 with little change, totally 18 titrations (2 μl each at an internal of 2.5 min) proceeded in the cell at room temperature. Prior to the titration, AasS protein (~40 μM) was saturated with its ATP cofactor (120 μM) in the cell, and C10-AMS inhibitor (or C10) was kept at 600 μM in the syringe. The titration buffer was composed of 150 mM NaCl, 25 mM Tris-HCl (pH8.0), 2 mM DTT, and 3 mM MgCl2. One set of site model by the MicroCal PEAQ-ITC software enabled plotting the titration curves. Next, the stoichiometry (N) and dissociation constant (Kd) were calculated. It was given as an average ± standard deviation (SD) from three independent trials.

AasS(D411A) = experiment: Microscale thermophoresis (MST), AasS(D411A) mutant; type: binding, Vibrio harveyi; settings: MST
Procedure: as §1

T1 sequence (Q00IB3 entry or part of it): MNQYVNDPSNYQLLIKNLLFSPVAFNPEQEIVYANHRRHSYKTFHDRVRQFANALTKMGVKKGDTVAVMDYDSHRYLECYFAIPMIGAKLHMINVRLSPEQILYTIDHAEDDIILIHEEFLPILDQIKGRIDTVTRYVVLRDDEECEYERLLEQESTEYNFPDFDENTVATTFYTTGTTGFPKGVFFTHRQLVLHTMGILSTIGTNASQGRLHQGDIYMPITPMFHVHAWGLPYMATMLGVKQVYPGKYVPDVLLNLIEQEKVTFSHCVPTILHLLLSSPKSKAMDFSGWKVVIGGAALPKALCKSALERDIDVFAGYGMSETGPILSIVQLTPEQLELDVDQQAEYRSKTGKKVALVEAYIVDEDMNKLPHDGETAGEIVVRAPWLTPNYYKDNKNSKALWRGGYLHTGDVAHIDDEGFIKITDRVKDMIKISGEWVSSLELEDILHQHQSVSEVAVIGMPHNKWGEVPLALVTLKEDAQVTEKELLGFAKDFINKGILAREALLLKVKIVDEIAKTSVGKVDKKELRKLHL

SMILES: CCCCCCCCCC(=O)NS(=O)(=O)OC[C@H]1O[C@@H](n2cnc3c(N)ncnc32)[C@H](O)[C@@H]1O [C10-AMS]
- Average (DeltaFNorm), AasS(WT) (AasS [1]; Dose 1.52588e-10): 0.4239
- Average (DeltaFNorm), AasS(WT) (AasS [1]; Dose 3.05176e-10): 1.688
- Average (DeltaFNorm), AasS(WT) (AasS [1]; Dose 6.10352e-10): 0.6276
- Average (DeltaFNorm), AasS(WT) (AasS [1]; Dose 1.2207e-9): -0.2133
- Average (DeltaFNorm), AasS(WT) (AasS [1]; Dose 2.44141e-9): -0.7539
- Average (DeltaFNorm), AasS(WT) (AasS [1]; Dose 4.88281e-9): -0.9203
- Average (DeltaFNorm), AasS(WT) (AasS [1]; Dose 9.76563e-9): -2.469
- Average (DeltaFNorm), AasS(WT) (AasS [1]; Dose 1.95313e-8): -0.4913
- Average (DeltaFNorm), AasS(WT) (AasS [1]; Dose 3.90625e-8): -0.5142
- Average (DeltaFNorm), AasS(WT) (AasS [1]; Dose 7.8125e-8): -1.198
- Average (DeltaFNorm), AasS(WT) (AasS [1]; Dose 1.5625e-7): -2.398
- Average (DeltaFNorm), AasS(WT) (AasS [1]; Dose 3.125e-7): -4.638
- Average (DeltaFNorm), AasS(WT) (AasS [1]; Dose 6.25e-7): -6.534
- Average (DeltaFNorm), AasS(WT) (AasS [1]; Dose 1.25e-6): -7.36
- Average (DeltaFNorm), AasS(WT) (AasS [1]; Dose 2.5e-6): -8.128
- Average (DeltaFNorm), AasS(WT) (AasS [1]; Dose 5e-6): -7.529
- stoichiometry (n) (AasS [2]): 0.97±0.16
- Kd (AasS [2]; ligand 600 μM in syringe, room temperature, read-out: dissociation constant (Kd)): 14.1 ± 3.82 nM
- Average (DeltaFNorm), AasS(D411A) (AasS(D411A); Dose 1.52588e-10): 4.014
- Average (DeltaFNorm), AasS(D411A) (AasS(D411A); Dose 3.05176e-10): 2.739
- Average (DeltaFNorm), AasS(D411A) (AasS(D411A); Dose 6.10352e-10): 3.15
- Average (DeltaFNorm), AasS(D411A) (AasS(D411A); Dose 1.2207e-9): 3.03
- Average (DeltaFNorm), AasS(D411A) (AasS(D411A); Dose 2.44141e-9): -1.436
- Average (DeltaFNorm), AasS(D411A) (AasS(D411A); Dose 4.88281e-9): 1.165
- Average (DeltaFNorm), AasS(D411A) (AasS(D411A); Dose 9.76563e-9): 0.1826
- Average (DeltaFNorm), AasS(D411A) (AasS(D411A); Dose 1.95313e-8): -0.6893
- Average (DeltaFNorm), AasS(D411A) (AasS(D411A); Dose 3.90625e-8): 2.194
- Average (DeltaFNorm), AasS(D411A) (AasS(D411A); Dose 7.8125e-8): -2.669
- Average (DeltaFNorm), AasS(D411A) (AasS(D411A); Dose 1.5625e-7): -0.9022
- Average (DeltaFNorm), AasS(D411A) (AasS(D411A); Dose 3.125e-7): -3.911
- Average (DeltaFNorm), AasS(D411A) (AasS(D411A); Dose 1.25e-6): -3.293
- Average (DeltaFNorm), AasS(D411A) (AasS(D411A); Dose 2.5e-6): -1.334
- Average (DeltaFNorm), AasS(D411A) (AasS(D411A); Dose 5e-6): -2.2407
